Test results published in patent US9993001B2, “Herbicidal composition” (ISHIHARA SANGYO KAISHA, LTD., priority 2014, dated 2018).

Columns and labels:
Assay type in all cases: in vivo
[1] = system: large crabgrass (Diqitaria sanquinalis L.); assay: Test Example 11: corn field, foliar treatment, metobromuron + nicosulfuron; conditions: Digitaria sanguinalis, foliar, read-out: Growth inhibition rate of large crabgrass (%) Measured value
Excerpt: (§1) When the herbicidal activity in a case where two active ingredients are combined, is larger than the simple sum of the respective herbicidal activities of the two active ingredients (the expected activity), it is called a synergistic effect. The activity expected by the combination of two active ingredients can be calculated as follows (Colby S. R., “Weed”, vol. 15, p. 20-22, 1967). E=α+β−(α×β[…]) where α: growth inhibition rate when treated with x (g/ha) of herbicide X, • β: growth inhibition rate when treated with y (g/ha) of herbicide Y, • E: growth inhibition rate expected when treated with x (g/ha) of herbicide X and y (g/ha) of herbicide Y.
(§2) On the 19th day after treatment, the state of growth of barnyardgrass was visually observed and evaluated in accordance with the following standards. The growth inhibition rate (%) [measured value] and the growth inhibition rate (%) [calculated value] calculated by the Colby's method, are shown in Table 2.
(§3) Growth inhibition rate (%)=inhibition rate) (%) of 0 (equivalent to the non-treated area) to 100 (complete kill) […]
On the 30th day after treatment, the state of growth of large crabgrass was visually observed and evaluated in the same manner as in Test Example 1.

[2] = system: Nepalese Smartweed (Persicaria nepalensis (Meisn.) H. Gross); assay: Test Example 3: soybean field, soil treatment, metobromuron + S-metolachlor; conditions: soil, read-out: Growth inhibition rate of Nepalese Smartweed (%) Measured value
Excerpt: as §1, §2, §3
On the 50th day after treatment, the state of growth of Nepalese Smartweed (Persicaria nepalensis (Meisn.) H. Gross) which occurred naturally, was visually observed and evaluated in the same manner as in Test Example 1.

[3] = system: common lambsquarters (Chenopodium album L.); assay: Test Example 20: pot, soil treatment, metobromuron + chlorpropham; conditions: soil, read-out: Growth inhibition rate of common lambsquarters (%) Measured value
Excerpt: as §1, §2
(§4) Growth inhibition rate (%)=inhibition rate) (%) of 0 (equivalent to the non-treated area) to 100 (complete kill)
Soil was put into a 1/300,000 ha pot, and seeds of barnyardgrass (Echinochloa crus-galli L.) were sown. On the day after seeding, predetermined amounts of SC containing metobromuron as active ingredient (same as in Test Example 1) and EC containing chlorpropham as active ingredient (same as in Test Example 1) were diluted with water corresponding to 1,000 L per hectare and applied for soil treatment.
On the 26th day after treatment, the state of growth of barnyardgrass was visually observed and evaluated in the same manner as in Test Example 1.
The test was carried out in the same manner as in Test Example 18 except that barnyardgrass (Echinochloa crus-galli L.) was changed to common lambsquarters (Chenopodium album L.), to obtain the results as shown in Table 21.

[4] = system: common chickweed (Stellaria media L.); assay: Test Example 25: pot, soil treatment, metobromuron + trifluralin; conditions: soil, read-out: Growth inhibition rate of common chickweed (%) Measured value
[5] = system: black nightshade (Solanum nigrum L.); assay: Test Example 14: pot, soil treatment, metobromuron + pyroxasulfone; conditions: soil, read-out: Growth inhibition rate of black nightshade (%) Measured value
Excerpt: as §1, §2, §4
(§5) Soil was put into a 1/300,000 ha pot, and seeds of black nightshade (Solanum nigrum L.) were sown. Prior to germination of black nightshade, predetermined amounts of SC containing metobromuron as active ingredient (same as in Test Example 1) and WG containing pyroxasulfone as active ingredient (same as in Test Example 13) were diluted with water corresponding to 1,000 L per hectare and applied for soil treatment.
On the 12th day after treatment, the state of growth of black nightshade was visually observed and evaluated in the same manner as in Test Example 1.

[6] = system: spotted knotweed (Polygonum lapathifolium L.); assay: Test Example 2: soybean field, soil treatment, metobromuron + S-metolachlor; conditions: Persicaria lapathifolia, soil, read-out: Growth inhibition rate of spotted knotweed (%) Measured value
Excerpt: as §1, §2, §3
On the 50th day after treatment, the state of growth of spotted knotweed was visually observed and evaluated in the same manner as in Test Example 1.

[7] = system: velvetleaf (Abutilon theophrasti MEDIC.); assay: Test Example 13: pot, soil treatment, metobromuron + pyroxasulfone; conditions: soil, read-out: Growth inhibition rate of velvetleaf (%) Measured value
Excerpt: as §1, §2, §4
as §5, with “velvetleaf (Abutilon theophrasti MEDIC.)” for “black nightshade (Solanum nigrum L.)”, “velvetleaf,” for “black nightshade,”, “(trade name: Sakura 850 WG, manufactured by Bayer CropScience)” for “(same as in Test Example 13)”
On the 12th day after treatment, the state of growth of velvetleaf was visually observed and evaluated in the same manner as in Test Example 1.

[8] = system: large crabgrass (Diqitaria sanquinalis L.); assay: Test Example 22: pot, soil treatment, metobromuron + prometryn; conditions: Digitaria sanguinalis, soil, read-out: Growth inhibition rate of large crabgrass (%) Measured value
Excerpt: as §1, §2, §4
Soil was put into a 1/300,000 ha pot, and seeds of barnyardgrass (Echinochloa crus-qalli L.) were sown. On the day after seeding, predetermined amounts of SC containing metobromuron as active ingredient (same as in Test Example 1) and WP containing prometryn as active ingredient (trade name: Gesagard 50, manufactured by Nippon Kayaku Co., Ltd.) were diluted with water corresponding to 1,000 L per hectare and applied for soil treatment.
On the 21st day after treatment, the state of growth of barnyardgrass was visually observed and evaluated in the same manner as in Test Example 1.
The test was carried out in the same manner as in Test Example 21 except that barnyardgrass (Echinochloa crus-qalli L.) was changed to large crabgrass (Diqitaria sanquinalis L.), to obtain the results as shown in Table 23.

CON(C)C(=O)Nc1ccc(Br)cc1 [Metobromuron, 3-(4-bromophenyl)-1-methoxy-1-methylurea]
inhibition at 1000 g/ha [1]: 25%
inhibition at 1500 g/ha [2]: 30%
inhibition at 188 g/ha [3]: 50%
inhibition at 250 g/ha [4]: 73%
inhibition at 375 g/ha [5]: 64%
inhibition at 750 g/ha [5]: 83%
inhibition at 1000 g/ha [6]: 58%
inhibition at 375 g/ha [7]: 28%
inhibition at 750 g/ha [7]: 55%
inhibition at 1500 g/ha [7]: 74%
inhibition at 750 g/ha [8]: 33%
inhibition at 1000 g/ha [8]: 50%
